Results on 7 compounds are retold here after paper PMC2925893, “Structure Activity Relationship of Dendrimer Microbicides with Dual Action Antiviral Activity” (PLoS ONE, 2010).

For one data set, the system named is HIV-1 NL4.3. The experiment in a line: Time of addition assay in TZM-bl cells. The format is cell-based. The method, then: TZM-bl cells were seeded in 96-well tissue culture plates at 2.5×10^4 cells per well in 100 µl of DMEM-10. Cells were grown for 12 h at 37°C in 5% CO2 after which triplicate wells were infected with NL4.3 at a multiplicity of infection of one by spinoculation. Briefly, DMEM-10 was removed from cells and replaced with 100 µl of virus in DMEM-10 and plates were centrifuged at 1200 g for 60 min at 17°C. Viral inoculum was removed and cells washed twice with 250 µl of cold DMEM-10 after which 100 µl of DMEM-10 or DMEM-10 containing drug was added at t = 0 to appropriate cells. DMEM-10 containing drug was subsequently added at t = 2, 3, 4, 5, 6, 8 and 24 h post infection to appropriate wells. At 31 h postinfection, HIV-1 replication was determined by measuring luciferase activity as above.

The subject of data set [1] is X4 (HXB2) HIV-1 envelope mediated cell-to-cell fusion. The experiment in a line: Cell-to-cell fusion assay, X4 envelope. The format is cell-based. The method, then: (§1) The gp120 gene from the R5 HIV-1 strain ADA and X4 HIV-1 strain HXB2 was cloned into a HIV-1 Env expression vector. Briefly, the 2.1 kb HIV-1 env within Kpn I and Bam HI restriction sites was cloned from viral genomic DNA into pSVIII-HXB2 Env expression vector [67]. The pcDNA3-CD4, pcDNA3-CCR5 and pcDNA3-CXCR4 plasmids express human CD4, R5 and X4 respectively. pSVTat expresses the HIV-1 Tat protein. Cell-cell fusion assays were conducted as described previously. Briefly, Cf2-Luc target cells seeded in 25 cm^2 tissue culture flasks were transfected with 1 µg of CD4 plasmid and 3 µg of R5 or X4 plasmid. 293T effector cells seeded in 6-well tissue culture plates were co-transfected with 3.4 µg of ADA or HXB2 gp120-expressing plasmid and 0.6 µg pSVTat. Target and effector cells were transfected using Lipofectamine 2000 (Invitrogen) according to the manufacturers' protocol. Effector cells expressing ADA or HXB2 Env were pre-incubated in DMEM-10 containing 10-fold increasing concentrations of efavarenz, T-20, dendrimer or no drug (untreated controls) for 30 min at 37°C. Approximately 2×10^4 effector cells were added to 2×10^4 Cf2-Luc target cells and were incubated at 37°C in replicate wells containing 200 µl of culture. Cells from replicate wells were harvested at 7 h post-mixing and assayed for luciferase activity (Promega) according to the manufacturers' protocol. […]

A further data set relates to HIV-1 strains. The experiment in a line: microbe, parasite or virus in culture. The format is cell-based. The method, then: (§2) Fresh human PBMCs were isolated from screened donors, seronegative for HIV and hepatitis B virus. Cells were pelleted/washed 2-3 times by low speed centrifugation and resuspended in Dulbecco’s phosphate buffered saline (PBS) to remove contaminating platelets. The leukophoresed blood was then diluted 1:1 with PBS and layered over 14 ml of Ficoll-Hypaque density gradient (Lymphocyte Separation Medium, Cell Grow #85-072-CL, density 1.078 +/- 0.002 gm/ml) in a 50 ml centrifuge tube and then centrifuged for 30 min at 600g. Banded PBMCs were gently aspirated from the resulting interface and subsequently washed twice with PBS by low speed centrifugation. After the final wash, cells were counted by trypan blue exclusion and resuspended at 1 x 10^7 cells/ml in RPMI 1640 supplemented with 15% Fetal Bovine Serum (FBS), 2 mM L-glutamine, 4 µg/ml PHA-P. The cells were allowed to incubate for 48-72 h at 37°C. After incubation, PBMCs were centrifuged and resuspended in RPMI 1640 with 15% FBS, 2 mM L-glutamine, 100 U/ml penicillin, 100 µg/ml streptomycin, 10 µg/ml gentamycin, and 20 U/ml recombinant human IL-2. PBMCs were maintained in this medium at a concentration of 1-2 x 10^6 cells/ml with biweekly medium changes until used in the assay protocol. Monocytes were depleted from the culture as the result of adherence to the tissue culture flask.
For the standard PBMC assay, PHA-P stimulated cells from at least two normal donors were pooled, diluted in fresh medium to a final concentration of 1 x 10^6 cells/ml, and plated in the wells of a 96-well round bottom microplate at 50 µl/well (5 x 10^4 cells/well). […] Fifty microlitres of a predetermined dilution of virus stock was placed in each test well (final MOI ≅ 0.1). Wells with cells and virus alone were used for virus control. […] The PBMC cultures were maintained for seven days following infection, at which time cell-free supernate samples were collected and assayed for reverse transcriptase activity as described below.
A microtiter plate-based reverse transcriptase (RT) reaction was utilized. Tritiated thymidine triphosphate (^3H-TTP, 80 Ci/mmol, NEN) was received in 1:1 dH2O:ethanol at 1 mCi/ml. PolyrA:oligodT template-primer (Pharmacia) was prepared as a stock solution by combining 150 µl polyrA (20 mg/ml) with 0.5 ml oligodT (20 units/ml) and 5.35 ml sterile dH2O followed by aliquoting (1.0 ml) and storage at -20°C. The RT reaction buffer was prepared fresh on a daily basis and consisted of 125 µl 1.0 M EGTA, 125 µl dH2O, 125 µl 20% Triton X100, 50 µl 1.0 M Tris (pH 7.4), 50 µl 1.0 M DTT, and 40 µl 1.0 M MgCl2. The final reaction mixture was prepared by combining 1 part ^3H-TTP, 4 parts dH2O, 2.5 parts polyrA:oligodT stock and 2.5 parts reaction buffer. Ten microliters of this reaction mixture was placed in a round bottom microtiter plate and 15 µl of virus containing supernatant was added and mixed. The plate was incubated at 37°C for 60 min. Following incubation, the reaction volume was spotted onto DE81 filter-mats (Wallac), washed 5 times for 5 min each in a 5% sodium phosphate buffer or 2X saline sodium citrate (SSC, Life Technologies), 2 times for 1 min each in distilled water, 2 times for 1 min each in 70% ethanol, and then dried. Incorporated radioactivity (counts per minute, CPM) was quantified using standard liquid scintillation techniques.
(§3) The plate was read spectrophotometrically at 490/650 nm with a Molecular Devices Vmax plate reader

The test system of another data set is HIV-2 strains. The experiment in a line: Anti-HIV activity in PHA-stimulated human PBMCs, supernatant RT activity readout. The format is cell-based. As to conditions: PBMC. The method, then:
as §2
For the standard PBMC assay, PHA-P stimulated cells from at least two normal donors were pooled, diluted in fresh medium to a final concentration of 1 x 10^6 cells/ml, and plated in the wells of a 96-well round bottom microplate at 50 µl/well (5 x 10^4 cells/well). […] Fifty microlitres of a predetermined dilution of virus stock was placed in each test well (final MOI ≅ 0.1). Wells with cells and virus alone were used for virus control. […]
A microtiter plate-based reverse transcriptase (RT) reaction was utilized. […] Incorporated radioactivity (counts per minute, CPM) was quantified using standard liquid scintillation techniques.
as §3

Data set [2] concerns R5 (ADA) HIV-1 envelope mediated cell-to-cell fusion. Description: Cell-to-cell fusion assay, R5 envelope. The format is cell-based. The method, then:
as §1

The next data set deals with HSV-2 strain G. Set-up: method as in PMID 16740164. Particulars: mouse, single dose; cited from earlier work.
Where [3] appears, read: PBMC, multi-drug resistant HIV-1 MDR769.

Like-named read-outs stand apart in the source and are kept apart here.

Consider `c1cc(CN2CCCNCCNCCCNCC2)ccc1CN1CCCNCCNCCCNCC1` [AMD3100], for which the “time of addition result” value in the data set on HIV-1 NL4.3 (dendrimers at 20 and 100 µg/ml) is “failed to block HIV-1 replication if the drug was added after virus addition”. Moreover, the “inhibition of cell-to-cell fusion” value in data set [1] is “failed to inhibit fusion”.
The EC50 is the concentration that produces a half-maximal response. In the case of `Cc1cn([C@H]2C[C@H](N=[N+]=[N-])[C@@H](CO)O2)c(=O)[nH]c1=O` [AZT, zidovudine], the EC50 in the data set with HIV-1 strains (Human immunodeficiency virus 1, CCR5, PBMC, Clade A (92RW016), CCR5) worked out at 2 nM; with HIV-1 strains (Human immunodeficiency virus 1, CCR5, PBMC, Clade B (302056), CCR5), 10 nM; with HIV-1 strains (Human immunodeficiency virus 1, CCR5, PBMC, Clade C (92BR025), CCR5), 4 nM; in the data set with HIV-1 strains (Human immunodeficiency virus 1, CCR5, PBMC, Clade G (JV1083), CCR5), 4 nM; in the data set with HIV-1 strains (Human immunodeficiency virus 1, CCR5, PBMC, Clade O (BCF01), CCR5) it was 4 nM; in the data set on HIV-1 strains (Human immunodeficiency virus 1, CCR5, PBMC, SLKA (NSI), CCR5), 4 nM. In addition, the EC50 turned out to be 2 nM in the data set on HIV-1 strains (Human immunodeficiency virus 1, CCR5, PBMC, TEKI (NSI), CCR5); 3 nM in the data set on HIV-1 strains (Human immunodeficiency virus 1, PBMC, PBMC, Clade D (92UG046), CXCR4); 8 nM with HIV-1 strains (Human immunodeficiency virus 1, PBMC, PBMC, Clade EA (CMU02), CXCR4); 2 nM in the data set with HIV-1 strains (Human immunodeficiency virus 1, PBMC, PBMC, Clade F (93BR020), dual tropic); 2 nM in the data set on HIV-1 strains (Human immunodeficiency virus 1, PBMC, PBMC, ROJO (SI), CXCR4); 0.3 nM in the data set on HIV-1 strains (Human immunodeficiency virus 1, PBMC, PBMC, WEJO (SI), CXCR4). For the same compound, the EC50 in the data set with HIV-1 strains (Human immunodeficiency virus 1, PBMC, read-out: EC50 of positive control, assay validation, PBMC assays) was at most 10 nM; in the data set with HIV-2 strains (Human immunodeficiency virus 2, HIV-2 CBL-20, AZT column), 1 nM. Besides, the SI in the data set on HIV-1 strains (PBMC, Clade A (92RW016)) is recorded as above 500; with HIV-1 strains (PBMC, Clade B (302056)) it was above 100; in the data set on HIV-1 strains (PBMC, Clade C (92BR025)), above 250; in the data set with HIV-1 strains (PBMC, Clade D (92UG046)) it was above 333; in the data set with HIV-1 strains (PBMC, Clade EA (CMU02)), above 125; with HIV-1 strains (PBMC, Clade F (93BR020)), above 500. Besides, the SI in the data set on HIV-1 strains (PBMC, Clade G (JV1083)) is above 250; with HIV-1 strains (PBMC, Clade O (BCF01)), above 250; in the data set with HIV-1 strains (PBMC, ROJO (SI)) it was above 500; in the data set with HIV-1 strains (PBMC, SLKA (NSI)) it was above 250; in the data set with HIV-1 strains (PBMC, TEKI (NSI)) it was above 500; in the data set on HIV-1 strains (PBMC, WEJO (SI)), above 3333. Also, the SI in the data set on HIV-2 strains (HIV-2 CBL-20) and in the data set with HIV-2 strains (HIV-2 CDC 310319) was above 1000 in each case.
For the compound `O=C1Nc2ccc(Cl)cc2[C@@](C#CC2CC2)(C(F)(F)F)O1` [efavirenz], the “inhibition of cell-to-cell fusion” value in data set [2] and in data set [1] was “did not inhibit cell-to-cell fusion” throughout.
Turning to `Cc1ccnc2c1NC(=O)c1cccnc1N2C1CC1` [nevirapine], the “time post infection that addition could be delayed before loss of HIV-1 inhibitory activity” value in the data set on HIV-1 NL4.3 is recorded as “up to 6 h”.
In the case of `CCCCCCCCCc1ccc(OCCOCCOCCOCCOCCOCCOCCOCCOCCO)cc1` [nonoxynol 9], in the data set with HSV-2 strain G, the “susceptibility to HSV-2 infection after exposure” value was “susceptibility is greatly increased”.
In the data set with HIV-1 strains (setting [3]), Dextran Sulfate gave a concentration giving a half-maximal response (EC50) of 1.25 µg/mL and an SI above 80.
For the compound maraviroc, in data set [2], the “inhibition of cell-to-cell fusion” value was “failed to inhibit fusion”.
